# Results reported in patent publication US20080146669A1, “Novel Chloride Channel Pore Openers” (THE UAB RESEARCH FOUNDATION, priority 2005, published 2008).
# Like-named read-outs stand apart in the source and are kept apart here.
# Tests used:
# Format in all cases: biochemical
# ΔF508-CFTR = target: T1, ΔF508-CFTR (Homo sapiens, UniProt P13569, DEL508-508); assay: Micropatch recording of HEK-293T patches expressing ΔF508-CFTR, opening rate and Po
# T1 construct: expressed in transfected cells; host or cells: HEK-293T, transient; grown at 28° C. for 24 hrs
# T1 sequence (P13569 with tags, fused parts or gaps DEL508-508): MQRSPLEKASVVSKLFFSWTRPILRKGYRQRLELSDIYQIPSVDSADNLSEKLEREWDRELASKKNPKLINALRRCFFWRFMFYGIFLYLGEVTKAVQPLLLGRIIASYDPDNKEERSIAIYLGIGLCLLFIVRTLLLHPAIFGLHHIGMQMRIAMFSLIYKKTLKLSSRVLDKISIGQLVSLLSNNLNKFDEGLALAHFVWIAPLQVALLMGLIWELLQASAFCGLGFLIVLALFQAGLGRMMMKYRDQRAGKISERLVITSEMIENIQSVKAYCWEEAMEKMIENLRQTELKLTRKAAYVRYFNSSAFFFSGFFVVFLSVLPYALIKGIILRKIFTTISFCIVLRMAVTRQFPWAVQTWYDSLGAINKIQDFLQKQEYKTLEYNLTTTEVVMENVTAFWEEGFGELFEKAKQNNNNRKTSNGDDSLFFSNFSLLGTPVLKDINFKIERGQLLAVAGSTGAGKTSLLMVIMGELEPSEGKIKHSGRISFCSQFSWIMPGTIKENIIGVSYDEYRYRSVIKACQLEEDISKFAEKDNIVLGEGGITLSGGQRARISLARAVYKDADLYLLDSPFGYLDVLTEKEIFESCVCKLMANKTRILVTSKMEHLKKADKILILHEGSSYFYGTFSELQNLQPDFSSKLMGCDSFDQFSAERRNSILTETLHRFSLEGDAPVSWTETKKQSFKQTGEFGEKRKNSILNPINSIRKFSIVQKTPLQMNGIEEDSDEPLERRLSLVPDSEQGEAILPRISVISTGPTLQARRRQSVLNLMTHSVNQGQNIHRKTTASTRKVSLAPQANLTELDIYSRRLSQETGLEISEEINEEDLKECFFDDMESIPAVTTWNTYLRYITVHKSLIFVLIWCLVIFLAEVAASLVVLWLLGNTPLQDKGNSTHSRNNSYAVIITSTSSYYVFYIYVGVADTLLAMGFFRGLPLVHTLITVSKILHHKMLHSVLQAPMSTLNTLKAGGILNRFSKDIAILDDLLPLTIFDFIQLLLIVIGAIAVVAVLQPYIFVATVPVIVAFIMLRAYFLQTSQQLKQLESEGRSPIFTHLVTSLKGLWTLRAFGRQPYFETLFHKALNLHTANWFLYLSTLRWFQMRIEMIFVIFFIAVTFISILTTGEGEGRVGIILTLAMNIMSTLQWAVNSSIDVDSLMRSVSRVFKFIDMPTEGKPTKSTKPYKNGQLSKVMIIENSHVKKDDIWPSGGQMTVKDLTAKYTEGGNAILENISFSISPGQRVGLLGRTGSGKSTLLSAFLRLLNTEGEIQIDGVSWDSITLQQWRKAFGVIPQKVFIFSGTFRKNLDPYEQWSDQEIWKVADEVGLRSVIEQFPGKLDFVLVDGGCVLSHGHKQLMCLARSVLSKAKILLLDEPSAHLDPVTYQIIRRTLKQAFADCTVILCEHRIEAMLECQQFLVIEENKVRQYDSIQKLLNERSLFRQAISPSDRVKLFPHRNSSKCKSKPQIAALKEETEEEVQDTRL
# Description: (§1) Cell culture DNA constructs and transfections. Baby hamster kidney (BHK) cells stably expressing wild type human CFTR (BHK-CFTR) were provided by J. Hanrahan (McGill University). BHK-CFTR cells were cultured in Dulbecco's modified Eagle's medium (DMEM (Mediatech)) supplemented with 5% fetal bovine serum (FBS) and 1 mM penicillin-streptomycin. The growth media for the BHK-CFTR cells also contained 0.5 mM methotrexate to maintain selection for CFTR-expressing cells (22). HEK-293T cells were transiently transfected with wild-type or mutant CFTR cDNA using the Lipofectamine transfection kit following manufacturer's recommendations (Invitrogen, Corp). HEK-293T cells were cultured in DMEM. All cells were grown on plastic coverslips for patch clamp recording and were used 2-3 days post-seeding. Electrophysiology and data analysis. Macroscopic and multi-channel currents were recorded in the excised, inside-out configuration. Patch pipettes were pulled from Corning 8161 glass to tip resistances of […] (macroscopic recordings) or 8-10 mOhm (micropatch studies). CFTR channels were activated following patch excision by exposure of the cytoplasmic face of the patch to catalytic subunit of protein kinase A (PKA; 110 U/ml; Promega) and Mg-ATP (1.5 mM). CFTR currents were recorded in symmetrical solution containing (in mM): 140 N-methyl-D-glucaniine-Cl, 3 MgCl2, 1 EGTA and 10 TES. The pH was adjusted to 7.3. Macroscopic currents were evoked using a ramp protocol from +80 to −80 mV with a 10 sec time period. Patches were held at −80 mV or +80 mV for micropatch (multichannel) recordings. All patch clamp experiments were performed at 21-23° C. Signals from macroscopic and single channel recording were filtered at 20 and 200 Hz, respectively. Data acquisition and analysis were performed using pCLAMP8 and pCLAMP9 software (Axon Instruments). Curve fitting for kinetic analysis was performed using Microcal Origin software. Averaged data are presented as mean +/−SEM. Statistical comparisons were made by performing unpaired t-tests unless otherwise indicated. Ussing Chamber Experiments-CFBE41o epithelial cells stably transfected with ΔF508-CFTR or transiently transfected with wild-type CFTR were cultured as electrically resistive monolayers and assayed in Ussing chambers as described (16). ΔF508-CFTR-expressing monolayers were grown at 27° C. for 2-3 days to enhance the surface expression of this temperature-sensitive mutant. A serosal-to-mucosal Cl^− gradient (120 to 1.2 mM) was imposed, followed by amiloride addition (100 μM) to block Na^+ currents. Compounds were added to both chambers at the indicated concentrations. A 3-mV voltage pulse was imposed every 100 s to monitor transepithelial resistance.
# wild-type CFTR [1] = target: T2, wild-type CFTR (Homo sapiens, UniProt P13569); assay: Macroscopic currents in excised inside-out patches from BHK-CFTR cells; parameters: expressed in transfected cells; provided by J. Hanrahan (McGill University); conditions: for EC50: moderately phosphorylated wild-type channels, normalized to peak current at 10 μM, read-out: EC50 of CFTR current stimulation (titration)
# T2 sequence (P13569 whole entry): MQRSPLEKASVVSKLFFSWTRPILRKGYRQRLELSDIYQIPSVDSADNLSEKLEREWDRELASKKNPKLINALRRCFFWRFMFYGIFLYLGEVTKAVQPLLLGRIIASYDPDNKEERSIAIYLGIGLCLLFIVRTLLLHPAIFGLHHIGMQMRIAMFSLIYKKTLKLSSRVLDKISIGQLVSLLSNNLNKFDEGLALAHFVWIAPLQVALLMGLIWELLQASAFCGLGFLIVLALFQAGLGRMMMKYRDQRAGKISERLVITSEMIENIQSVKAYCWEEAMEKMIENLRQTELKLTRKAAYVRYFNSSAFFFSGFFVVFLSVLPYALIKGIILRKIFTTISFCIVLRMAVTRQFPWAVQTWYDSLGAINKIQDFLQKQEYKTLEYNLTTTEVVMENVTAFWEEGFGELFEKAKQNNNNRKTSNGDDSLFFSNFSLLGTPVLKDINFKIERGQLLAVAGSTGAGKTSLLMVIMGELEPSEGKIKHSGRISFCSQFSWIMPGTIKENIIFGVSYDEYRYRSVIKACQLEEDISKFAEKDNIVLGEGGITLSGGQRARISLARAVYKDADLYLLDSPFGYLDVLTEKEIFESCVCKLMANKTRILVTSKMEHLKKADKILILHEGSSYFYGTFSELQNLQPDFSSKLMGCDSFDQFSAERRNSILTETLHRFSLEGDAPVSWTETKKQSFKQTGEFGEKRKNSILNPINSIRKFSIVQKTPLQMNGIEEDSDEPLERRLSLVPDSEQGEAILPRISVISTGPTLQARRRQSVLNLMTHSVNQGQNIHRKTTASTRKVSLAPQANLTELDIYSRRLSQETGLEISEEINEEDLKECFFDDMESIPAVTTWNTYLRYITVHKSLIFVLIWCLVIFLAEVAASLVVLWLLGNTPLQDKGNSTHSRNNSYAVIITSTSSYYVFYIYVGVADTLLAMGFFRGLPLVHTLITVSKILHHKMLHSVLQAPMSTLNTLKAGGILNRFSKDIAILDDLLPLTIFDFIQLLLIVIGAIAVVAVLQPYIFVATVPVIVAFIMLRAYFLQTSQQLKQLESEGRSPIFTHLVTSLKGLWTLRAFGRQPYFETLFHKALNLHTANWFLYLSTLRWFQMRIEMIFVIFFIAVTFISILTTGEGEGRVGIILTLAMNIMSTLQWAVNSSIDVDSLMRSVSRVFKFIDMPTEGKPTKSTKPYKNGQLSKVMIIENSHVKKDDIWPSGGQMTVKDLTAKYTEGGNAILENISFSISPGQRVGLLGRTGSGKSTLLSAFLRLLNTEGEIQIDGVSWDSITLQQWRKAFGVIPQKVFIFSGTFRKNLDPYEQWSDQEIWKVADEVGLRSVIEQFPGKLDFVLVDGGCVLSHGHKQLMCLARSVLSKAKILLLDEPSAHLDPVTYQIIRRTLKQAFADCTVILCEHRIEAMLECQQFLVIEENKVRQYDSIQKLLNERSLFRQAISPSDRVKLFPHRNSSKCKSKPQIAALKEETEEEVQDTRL
# Description: as §1, with “CFTR channels were activated following patch excision by exposure of the cytoplasmic face of the patch to catalytic subunit of protein kinase A (PKA; 110 U/ml; Promega) and Mg-ATP (1.5 mM).” left out
# wild-type CFTR [2] = target: T2, wild-type CFTR; assay: Micropatch (multichannel) recording of BHK-CFTR patches, opening rate and Po; parameters: expressed in transfected cells; provided by J. Hanrahan (McGill University)
# Description: as §1, with “CFTR channels were activated following patch excision by exposure of the cytoplasmic face of the patch to catalytic subunit of protein kinase A (PKA; 110 U/ml; Promega) and Mg-ATP (1.5 mM).” left out, “Ussing Chamber Experiments-CFBE41o epithelial cells stably transfected with ΔF508-CFTR or transiently transfected with wild-type CFTR were cultured as electrically resistive monolayers and assayed in Ussing chambers as described (16). ΔF508-CFTR-expressing monolayers were grown at 27° C. for 2-3 days to enhance the surface expression of this temperature-sensitive mutant. A serosal-to-mucosal Cl^− gradient (120 to 1.2 mM) was imposed, followed by amiloride addition (100 μM) to block Na^+ currents. Compounds were added to both chambers at the indicated concentrations. A 3-mV voltage pulse was imposed every 100 s to monitor transepithelial resistance.” left out
# wild-type CFTR [3] = target: T2, wild-type CFTR; assay: Macroscopic currents in excised patches from wild-type CFTR-transfected HEK-293T cells; parameters: expressed in transfected cells; host or cells: HEK-293T, transient (Lipofectamine); conditions: 10 μM; 1.5 mM Mg-ATP and 110 U/ml PKA
# Description: Cell culture DNA constructs and transfections. Baby hamster kidney (BHK) cells stably expressing wild type human CFTR (BHK-CFTR) were provided by J. Hanrahan (McGill University). BHK-CFTR cells were cultured in Dulbecco's modified Eagle's medium (DMEM (Mediatech)) supplemented with 5% fetal bovine serum (FBS) and 1 mM penicillin-streptomycin. The growth media for the BHK-CFTR cells also contained 0.5 mM methotrexate to maintain selection for CFTR-expressing cells (22). HEK-293T cells were transiently transfected with wild-type or mutant CFTR cDNA using the Lipofectamine transfection kit following manufacturer's recommendations (Invitrogen, Corp). HEK-293T cells were cultured in DMEM. All cells were grown on plastic coverslips for patch clamp recording and were used 2-3 days post-seeding. Electrophysiology and data analysis. Macroscopic and multi-channel currents were recorded in the excised, inside-out configuration. Patch pipettes were pulled from Corning 8161 glass to tip resistances of […] (macroscopic recordings) or 8-10 mOhm (micropatch studies). CFTR channels were activated following patch excision by exposure of the cytoplasmic face of the patch to catalytic subunit of protein kinase A (PKA; 110 U/ml; Promega) and Mg-ATP (1.5 mM). CFTR currents were recorded in symmetrical solution containing (in mM): 140 N-methyl-D-glucaniine-Cl, 3 MgCl2, 1 EGTA and 10 TES. […]
# [4] = 10 μM, high PKA, 1.5 mM MgATP, −80 mV, best guess estimate, mean±S.E., n=4
# [5] = 10 μM, poorly phosphorylated, −80 mV, best guess estimate, mean±S.E., n=7
structure (smiles),measurement,setting,value
NC(=O)c1cc([N+](=O)[O-])ccc1NCCCc1ccccc1 [NPPB-Am],"mean single channel opening rate, post compound",ΔF508-CFTR; [4],0.87±0.31 openings/s/channel
same,"single channel Po, post compound",ΔF508-CFTR; [4],0.25±0.07
same,simultaneous openings after compound addition,"ΔF508-CFTR; 10 μM, representative micropatch, no more than 2 before addition",12-15
same,effect on ΔF508-CFTR channel opening rate,ΔF508-CFTR; fewer than 10 detectable channels per patch,large increase in channel opening rate
same,relative stimulation as a function of CFTR phosphorylation,wild-type CFTR [1],greater relative stimulatory effect on poorly phosphorylated CFTR channels
same,time course and reversibility of the stimulation of CFTR current,wild-type CFTR [1],"rapid, stable and quickly reversible upon wash out"
same,voltage dependence of the stimulation of CFTR current,wild-type CFTR [1],voltage-independent with no evidence for CFTR inhibition at any holding potential
same,increase of the current,"wild-type CFTR [1]; 125 nM, mean titration data, n=8",approximately 20%
same,increase of the current,"wild-type CFTR [1]; 250 nM, representative patch",25%
same,effect on currents of poorly phosphorylated or thiolated CFTR channels,wild-type CFTR [1]; 10 μM,effectively stimulated the currents
same,effect on currents of moderately phosphorylated wild-type channels,"wild-type CFTR [1]; 10 μM, high PKA followed by PKI",stimulates currents in both directions
same,effect on the Mg-ATP sensitivity of CFTR activity,"wild-type CFTR [1]; Mg-ATP titration with and without compound, data not shown",no obvious effect
same,EC50,wild-type CFTR [1]; listed as NPPB-AM,960 nM
same,EC50,wild-type CFTR [1],710 nM
same,lowest concentration with detectable increases in CFTR currents,wild-type CFTR [1]; titration experiments,250 nM
same,"mean single channel opening rate, post compound",wild-type CFTR [2]; [5],1.07±0.29 openings/s/channel
same,"single channel Po, post compound",wild-type CFTR [2]; [5],0.26±0.06
same,effect on opening rates and mean single channel open probabilities (Pos),"wild-type CFTR [2]; poorly phosphorylated (2 U/ml PKA), fewer than 10 channels per patch",markedly increased the opening rates and mean single channel open probabilities
same,stimulation of the activity of the wild-type channel,wild-type CFTR [3],1.5-2 fold
